{"source": "patent US10059975B2", "about": "“Methods for the isolation and identification of microorganisms” (bioMerieux, Inc., priority 2008, dated 2018)", "format_in_all_cases": "cell-based", "key": {"[1]": {"tested_on": "Streptococcus pneumoniae, strain WM-43", "assay": "Effect of detergent type on Gram reactivity, viability and intrinsic fluorophores", "set-up": "key to Viability of Pellet: NG (no growth); 4+(maximal growth)", "conditions": "for Gram Stain of Pellet: Bacteria (cocci): detergent in 0.3M CAPS, pH 11.7, 1 min at 37° C.; for effect on Gram reaction/reactivity of the S. pneumoniae isolate (in words): Table 4; for Viability of Pellet: 1:100 dilution of resuspended pellet plated on Sheep Blood Agar, scale NG to 4+", "experimental": "Lysis buffers were prepared containing detergents of differing structure and lytic activity in a base buffer formulation of 0.3M CAPS, pH 11.7. These lysis buffers were functionally assessed using positive blood culture broth containing a clinical microorganism strain known to be sensitive to detergents and alkaline pH conditions, Streptococcus pneumoniae, strain WM-43. Parameters evaluated were microbial intrinsic fluorescence levels (Excitation-Emission Matrix spectra), separation efficiency, appearance of isolated microbial pellet, and Gram stain characteristics and viability of microorganisms recovered from the pellet beneath the density cushion.\nThe procedure was performed as follows:\nMix 2 parts of positive broth with 1 part of test lysis buffer, incubate in a 37° C. water bath for 1 minute to lyse blood cells, then layer 0.5 mL of lysate over 0.2 mL of density cushion (14% w/v Iohexyl+1.93% w/v NaCl+10 mM Hepes, pH 7.4) dispensed into a 2-piece optical separation tube which was then hermetically sealed with a screw-cap. After centrifuging the tube in an Eppendorf 5417R microcentrifuge fitted with a A-8-11 swing out rotor for 2 minutes at 10,000 rpm, the tube was placed into a custom-built adapter which coupled the base of the tube directly to a 400 micron fiber optic probe connected to a spectrofluorimeter (Fluorolog® 3 from Horiba Jobin-Yvon, New Jersey), and a complete EEM scan was taken (Ex 260-850 nm; Em 260-1100 nm; every 5 nm). Following the scan, the supernatant was removed and the microbial pellet resuspended in 0.5 mL of Tryptic Soy Broth (TSB). Smears of the suspensions were prepared for Gram staining and twenty microliters of a 1:100 dilution were plated onto Sheep Blood Agar plates for viability estimation on a scale of NG (no growth) to 4+(maximal growth)."}, "[2]": {"tested_on": "S. pneumoniae strain, WM43", "assay": "Further testing of lysis buffers in combination with density cushions", "conditions": "irrespective of the makeup of the density cushion"}, "[3]": {"tested_on": "fastidious microorganisms", "assay": "Screening model, summary over the panel", "conditions": "summary of the colony counts of Table 6", "experimental": "(§1) A screening model was developed to enable testing the sensitivity of a larger number of microbial isolates to several detergents. Briefly, suspensions of test fastidious microorganisms were spiked into human blood-containing BacT/ALERT® SA culture media at 10^3-10^5 CFU/mL. Samples were treated with test Lysis Buffers for 1-5 minutes at 37 C, then if required, diluted 1:100 into TSB and plated for viable counts."}, "[4]": {"tested_on": "S. pneumoniae, S. pyogenes, S. agalactiae, S. mitis, P. mirabilis, K. pneumoniae and E. coli", "assay": "Follow up experiment: viability after 5-minute contact time", "conditions": "data not shown"}, "H. parainfluenzae": {"tested_on": "H. parainfluenzae", "assay": "Viable counts following lysis buffer treatment", "experimental": "as §1"}, "S. pneumoniae WM43": {"tested_on": "S. pneumoniae WM43", "assay": "Viable counts following lysis buffer treatment", "experimental": "as §1"}, "S. pneumoniae WM48": {"tested_on": "S. pneumoniae WM48", "assay": "Viable counts following lysis buffer treatment", "experimental": "as §1"}, "A. actinomycetecomitans": {"tested_on": "A. actinomycetecomitans", "assay": "Viable counts following lysis buffer treatment", "experimental": "as §1"}, "C. hominis": {"tested_on": "C. hominis", "assay": "Viable counts following lysis buffer treatment", "experimental": "as §1"}, "H. influenzae": {"tested_on": "H. influenzae", "assay": "Viable counts following lysis buffer treatment", "experimental": "as §1"}, "N. meningitidis": {"tested_on": "N. meningitidis", "assay": "Viable counts following lysis buffer treatment", "experimental": "as §1"}}, "data": [{"compound": "CCCCCCCCO[C@@H]1O[C@H](CO)[C@@H](O)[C@H](O)[C@H]1O", "note": "[Detergent 1, n-octyl glucoside, reference compound]", "values": [{"measurement": "Gram Stain of Pellet: Bacteria (cocci)", "setting": "[1]", "value": "No organisms seen"}]}, {"compound": "Arlasolve 200 [Detergent 11]", "values": [{"measurement": "Gram Stain of Pellet: Bacteria (cocci)", "setting": "[1]", "value": "3+ Gram positive"}]}, {"compound": "Brij ® 98 [Detergent 12]", "values": [{"measurement": "Gram Stain of Pellet: Bacteria (cocci)", "setting": "[1]", "value": "3+ Gram positive"}]}, {"compound": "Genapol ® X-080 [Detergent 5]", "values": [{"measurement": "effect on Gram reaction/reactivity of the S. pneumoniae isolate (in words)", "setting": "[1]", "value": "relatively minor effect"}]}, {"compound": "CCCCCCCCCCCCOCCOCCOCCOCCOCCOCCOCCOCCOCCO", "note": "[Detergent 6, nonaethylene glycol monododecyl ether, reference compound]", "values": [{"measurement": "Viability of Pellet", "setting": "[1]", "value": "4+"}, {"measurement": "effect on Gram reaction/reactivity of the S. pneumoniae isolate (in words)", "setting": "[1]", "value": "relatively minor effect"}, {"measurement": "viability of the recovered S. pneumoniae cells (in words)", "setting": "[2]", "value": "not as high"}]}, {"compound": "Brij ® 97 [Detergent 10]", "values": [{"measurement": "Viability of Pellet", "setting": "[1]", "value": "4+"}, {"measurement": "Gram Stain of Pellet: Bacteria (cocci)", "setting": "[1]", "value": "3+ Gram positive"}, {"measurement": "toxicity over the panel (in words)", "setting": "[3]", "value": "minimal toxicity"}, {"measurement": "viability (in words)", "setting": "[4]", "value": "remained unaffected"}, {"measurement": "Viable Counts Following Lysis Buffer Treatment", "setting": "H. parainfluenzae; 1 min at 37 C", "value": 124}, {"measurement": "Viable Counts Following Lysis Buffer Treatment", "setting": "H. parainfluenzae; 5 min at 37 C", "value": 19}, {"measurement": "Viable Counts Following Lysis Buffer Treatment", "setting": "S. pneumoniae WM43; 1 min at 37 C", "value": 18}, {"measurement": "Viable Counts Following Lysis Buffer Treatment", "setting": "S. pneumoniae WM43; 5 min at 37 C", "value": 7}, {"measurement": "Viable Counts Following Lysis Buffer Treatment", "setting": "S. pneumoniae WM48; 1 min at 37 C", "value": 14}, {"measurement": "Viable Counts Following Lysis Buffer Treatment", "setting": "S. pneumoniae WM48; 5 min at 37 C", "value": 11}, {"measurement": "Viable Counts Following Lysis Buffer Treatment", "setting": "A. actinomycetecomitans; 1 min at 37 C", "value": 0}, {"measurement": "Viable Counts Following Lysis Buffer Treatment", "setting": "A. actinomycetecomitans; 5 min at 37 C", "value": 0}, {"measurement": "Viable Counts Following Lysis Buffer Treatment", "setting": "C. hominis; 1 min at 37 C", "value": 74}, {"measurement": "Viable Counts Following Lysis Buffer Treatment", "setting": "C. hominis; 5 min at 37 C", "value": 28}, {"measurement": "Viable Counts Following Lysis Buffer Treatment", "setting": "H. influenzae; 1 min at 37 C", "value": 0}, {"measurement": "Viable Counts Following Lysis Buffer Treatment", "setting": "H. influenzae; 5 min at 37 C", "value": 0}, {"measurement": "Viable Counts Following Lysis Buffer Treatment", "setting": "N. meningitidis; 1 min at 37 C", "value": 0}, {"measurement": "Viable Counts Following Lysis Buffer Treatment", "setting": "N. meningitidis; 5 min at 37 C", "value": 0}]}, {"compound": "Triton ® X100-R [Detergent 3]", "values": [{"measurement": "Gram Stain of Pellet: Bacteria (cocci)", "setting": "[1]", "value": "2+ Gram negative"}, {"measurement": "viability of the recovered S. pneumoniae cells (in words)", "setting": "[2]", "value": "not as high"}]}, {"compound": "Genapol ® C-100 [Detergent 7]", "values": [{"measurement": "Gram Stain of Pellet: Bacteria (cocci)", "setting": "[1]", "value": "3+ Gram positive"}, {"measurement": "viability (in words)", "setting": "[4]", "value": "remained unaffected"}, {"measurement": "Viable Counts Following Lysis Buffer Treatment", "setting": "H. parainfluenzae; 1 min at 37 C", "value": 0}, {"measurement": "Viable Counts Following Lysis Buffer Treatment", "setting": "H. parainfluenzae; 5 min at 37 C", "value": 0}, {"measurement": "toxicity (in words)", "setting": "H. parainfluenzae; compared with Brij® 97", "value": "slightly more toxic"}, {"measurement": "Viable Counts Following Lysis Buffer Treatment", "setting": "S. pneumoniae WM43; 1 min at 37 C", "value": 30}, {"measurement": "Viable Counts Following Lysis Buffer Treatment", "setting": "S. pneumoniae WM43; 5 min at 37 C", "value": 19}, {"measurement": "Viable Counts Following Lysis Buffer Treatment", "setting": "S. pneumoniae WM48; 1 min at 37 C", "value": 17}, {"measurement": "Viable Counts Following Lysis Buffer Treatment", "setting": "S. pneumoniae WM48; 5 min at 37 C", "value": 12}, {"measurement": "Viable Counts Following Lysis Buffer Treatment", "setting": "A. actinomycetecomitans; 1 min at 37 C", "value": 0}, {"measurement": "Viable Counts Following Lysis Buffer Treatment", "setting": "A. actinomycetecomitans; 5 min at 37 C", "value": 0}, {"measurement": "Viable Counts Following Lysis Buffer Treatment", "setting": "C. hominis; 1 min at 37 C", "value": 0}, {"measurement": "Viable Counts Following Lysis Buffer Treatment", "setting": "C. hominis; 5 min at 37 C", "value": 0}, {"measurement": "toxicity (in words)", "setting": "C. hominis; compared with Brij® 97", "value": "slightly more toxic"}, {"measurement": "Viable Counts Following Lysis Buffer Treatment", "setting": "H. influenzae; 1 min at 37 C", "value": 0}, {"measurement": "Viable Counts Following Lysis Buffer Treatment", "setting": "H. influenzae; 5 min at 37 C", "value": 0}, {"measurement": "Viable Counts Following Lysis Buffer Treatment", "setting": "N. meningitidis; 1 min at 37 C", "value": 0}, {"measurement": "Viable Counts Following Lysis Buffer Treatment", "setting": "N. meningitidis; 5 min at 37 C", "value": 0}]}, {"compound": "Genapol ® X-100 [Detergent 8]", "values": [{"measurement": "Viability of Pellet", "setting": "[1]", "value": "4+"}, {"measurement": "Gram Stain of Pellet: Bacteria (cocci)", "setting": "[1]", "value": "3+ Gram positive"}]}, {"compound": "Brij ® 96V [Detergent 9]", "values": [{"measurement": "Gram Stain of Pellet: Bacteria (cocci)", "setting": "[1]", "value": "3+ Gram positive"}]}, {"compound": "C[C@H](CCC(=O)NCCC[N+](C)(C)CCCS(=O)(=O)[O-])[C@H]1CC[C@H]2[C@@H]3[C@H](O)C[C@@H]4C[C@H](O)CC[C@]4(C)[C@H]3C[C@H](O)[C@]12C", "note": "[Detergent 2, CHAPS, reference compound]", "values": [{"measurement": "Gram Stain of Pellet: Bacteria (cocci)", "setting": "[1]", "value": "Rare Gram negative"}]}]}
